Source: patent US6355799B1, “Substituted benzene compounds, process for their preparation, and herbicidal and defoliant compositions containing them” (ISK Americas Incorporated, priority 1997, dated 2002)

Assays:
Assay type in all cases: in vivo
[1] = tested on: redroot pigweed (Amaranthus retroflexus, AMARE); experiment: Pre-emerge test, greenhouse herbicide activity screening; details: rating scale 0-100, 14 days after application
How it was run: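 Herbicidal damage is scored 0 (none) to 100 (complete plant death) two weeks after a simulated field spray. Rates span 15–1000 g ai/ha, delivered in acetone at 187 l/ha. For post-emergence treatments, plants have 2–3 leaves and the spray carries 0.25% v/v non-ionic surfactant.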

[2] = tested on: barnyardgrass (Echinochloa crus-galli, ECHCG); experiment: as above; details: rating scale 0-100, 14 days after application
How it was run: (§1)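 Rating: 0–100 visual injury, 14 DAA. Application: acetone, 187 l/ha, 15–1000 g ai/ha, flat-fan track sprayer with nozzle 40–45 cm above soil or canopy. Post-emerge runs used 0.25% v/v surfactant on 2–3 leaf plants.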

[3] = tested on: green foxtail (Setaria viridis, SETVI); experiment: as above; details: rating scale 0-100, 14 days after application
How it was run: as §1

[4] = tested on: ivyleaf morningglory (Ipomoea hederacea, IPOHE); experiment: as above; details: rating scale 0-100, 14 days after application
How it was run: as §1

[5] = tested on: johnsongrass (Sorghum halepense, SORHA); experiment: as above; details: rating scale 0-100, 14 days after application
How it was run: as §1

[6] = tested on: lambsquarters (Chenopodium album, CHEAL); experiment: as above; details: rating scale 0-100, 14 days after application
How it was run: as §1

[7] = tested on: large crabgrass (Digitaria sanguinalis, DIGSA); experiment: as above; details: rating scale 0-100, 14 days after application
How it was run: as §1

[8] = tested on: sicklepod (Cassia obtusifolia, CASOB); experiment: as above; details: rating scale 0-100, 14 days after application
How it was run: as §1

[9] = tested on: velvetleaf (Abutilon theophrasti, ABUTH); experiment: as above; details: rating scale 0-100, 14 days after application
How it was run: as §1

[10] = tested on: field corn (Zea mays L., var. Dekalb 535, CORN); experiment: Pre-emerge test, crop safety; details: rating scale 0-100, 14 days after application
How it was run: (§2)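 Visual ratings on a 0-100 scale (0 no damage, 100 all plants dead) were taken at 14 days after treatment. Rates of 15-1000 g ai/ha in acetone, 187 l/ha, were sprayed onto soil one day after planting (pre-emerge) or onto 2-3 leaf plants with 0.25% v/v surfactant (post-emerge).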

[11] = tested on: upland rice (Oryza sp., var. Tebonnet, RICE); experiment: Pre-emerge test, crop safety; details: rating scale 0-100, 14 days after application
How it was run: as §2

[12] = tested on: barnyardgrass (Echinochloa crus-galli, ECHCG); experiment: Post-emerge test, greenhouse herbicide activity screening; details: rating scale 0-100 (0 no damage, 100 complete death), 14 days after application
How it was run: as §1

[13] = tested on: common ragweed (Ambrosia artemisizfolia L., AMBEL); experiment: as above; details: rating scale 0-100 (0 no damage, 100 complete death), 14 days after application
How it was run: as §1

[14] = tested on: green foxtail (Setaria viridis, SETVI); experiment: as above; details: rating scale 0-100 (0 no damage, 100 complete death), 14 days after application
How it was run: as §1

[15] = tested on: ivyleaf morningglory (Ipomoea hederacea, IPOHE); experiment: as above; details: rating scale 0-100 (0 no damage, 100 complete death), 14 days after application
How it was run: as §1

[16] = tested on: johnsongrass (Sorghum halepense, SORHA); experiment: as above; details: rating scale 0-100 (0 no damage, 100 complete death), 14 days after application
How it was run: as §1

[17] = tested on: lambsquarters (Chenopodium album, CHEAL); experiment: as above; details: rating scale 0-100 (0 no damage, 100 complete death), 14 days after application
How it was run: as §1

[18] = tested on: large crabgrass (Digitaria sanguinalis, DIGSA); experiment: as above; details: rating scale 0-100 (0 no damage, 100 complete death), 14 days after application
How it was run: as §1

[19] = tested on: redroot pigweed (Amaranthus retroflexus, AMARE); experiment: as above; details: rating scale 0-100 (0 no damage, 100 complete death), 14 days after application
How it was run: as §1

[20] = tested on: sicklepod (Cassia obtusifolia, CASOB); experiment: as above; details: rating scale 0-100 (0 no damage, 100 complete death), 14 days after application
How it was run: as §1

[21] = tested on: velvetleaf (Abutilon theophrasti, ABUTH); experiment: as above; details: rating scale 0-100 (0 no damage, 100 complete death), 14 days after application
How it was run: as §1

[22] = tested on: field corn (Zea mays L., var. Dekalb 535, CORN); experiment: Post-emerge test, crop safety; details: rating scale 0-100 (0 no damage, 100 complete death), 14 days after application
How it was run: (§3)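 Plants grown in 10 cm pots of sandy loam mix received acetone-dissolved compounds through a moving flat-fan nozzle. Doses ranged from 15 to 1000 g ai/ha. Pre-emerge pots were seeded one day earlier, post-emerge pots 8–21 days earlier. Fourteen days on, each pot was graded 0–100 for damage.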

[23] = tested on: upland rice (Oryza sp., var. Tebonnet, RICE); experiment: Post-emerge test, crop safety; details: rating scale 0-100 (0 no damage, 100 complete death), 14 days after application
How it was run: as §3

**Q.** For COc1c(Cl)cc(F)c(-n2c(=O)cc(C(F)(F)F)n(C)c2=O)c1CC(C)(Cl)C(=O)OC(C)C (stereo not shown) [14-39], which “Pre-emerge herbicidal activity, phytotoxicity rating AMARE” value ([1]; 63 g ai/ha) is on record?
**A.** The value was 100.

**Q.** And the “Pre-emerge herbicidal activity, phytotoxicity rating AMARE” value ([1]; 250 g ai/ha)?
**A.** Its value is 100.

**Q.** And the “Pre-emerge herbicidal activity, phytotoxicity rating ECHCG” value ([2]; 63 g ai/ha)?
**A.** Its value is 10.

**Q.** And the “Pre-emerge herbicidal activity, phytotoxicity rating ECHCG” value ([2]; 250 g ai/ha)?
**A.** The value was 95.

**Q.** And the “Pre-emerge herbicidal activity, phytotoxicity rating SETVI” value ([3]; 63 g ai/ha)?
**A.** Its value is 70.

**Q.** And the “Pre-emerge herbicidal activity, phytotoxicity rating SETVI” value ([3]; 250 g ai/ha)?
**A.** The value was 100.

**Q.** What about the “Pre-emerge herbicidal activity, phytotoxicity rating IPOHE” value ([4]; 63 g ai/ha) of the same compound?
**A.** The value was 0.

**Q.** And the “Pre-emerge herbicidal activity, phytotoxicity rating IPOHE” value ([4]; 250 g ai/ha)?
**A.** The value was 0.

**Q.** And the “Pre-emerge herbicidal activity, phytotoxicity rating SORHA” value ([5]; 63 g ai/ha)?
**A.** Its value is 0.

**Q.** And the “Pre-emerge herbicidal activity, phytotoxicity rating SORHA” value ([5]; 250 g ai/ha)?
**A.** The value was 60.

**Q.** What about the “Pre-emerge herbicidal activity, phytotoxicity rating CHEAL” value ([6]; 63 g ai/ha) of the same compound?
**A.** The value was 100.

**Q.** What about the “Pre-emerge herbicidal activity, phytotoxicity rating CHEAL” value ([6]; 250 g ai/ha) of the same compound?
**A.** The value was 100.

**Q.** And the “Pre-emerge herbicidal activity, phytotoxicity rating DIGSA” value ([7]; 63 g ai/ha)?
**A.** The value was 95.

**Q.** What about the “Pre-emerge herbicidal activity, phytotoxicity rating DIGSA” value ([7]; 250 g ai/ha) of the same compound?
**A.** Its value is 100.

**Q.** And the “Pre-emerge herbicidal activity, phytotoxicity rating CASOB” value ([8]; 63 g ai/ha)?
**A.** Its value is 0.

**Q.** What about the “Pre-emerge herbicidal activity, phytotoxicity rating CASOB” value ([8]; 250 g ai/ha) of the same compound?
**A.** Its value is 20.

**Q.** And the “Pre-emerge herbicidal activity, phytotoxicity rating ABUTH” value ([9]; 63 g ai/ha)?
**A.** The value was 100.

**Q.** What about the “Pre-emerge herbicidal activity, phytotoxicity rating ABUTH” value ([9]; 250 g ai/ha) of the same compound?
**A.** Its value is 100.

**Q.** And the “Pre-emerge phytotoxicity rating, crop damage CORN” value ([10]; 63 g ai/ha)?
**A.** Its value is 0.

**Q.** What about the “Pre-emerge phytotoxicity rating, crop damage CORN” value ([10]; 250 g ai/ha) of the same compound?
**A.** The value was 0.

**Q.** And the “Pre-emerge phytotoxicity rating, crop damage RICE” value ([11]; 63 g ai/ha)?
**A.** Its value is 0.

**Q.** And the “Pre-emerge phytotoxicity rating, crop damage RICE” value ([11]; 250 g ai/ha)?
**A.** Its value is 80.

**Q.** What about the “Post-emerge Herbicidal Activity, phytotoxicity rating ECHCG” value ([12]; Rate 63 g ai/ha) of the same compound?
**A.** The value was 100.

**Q.** And the “Post-emerge Herbicidal Activity, phytotoxicity rating ECHCG” value ([12]; Rate 250 g ai/ha)?
**A.** Its value is 100.

**Q.** What about the “Post-emerge Herbicidal Activity, phytotoxicity rating AMBEL” value ([13]; Rate 63 g ai/ha) of the same compound?
**A.** Its value is 50.

**Q.** What about the “Post-emerge Herbicidal Activity, phytotoxicity rating AMBEL” value ([13]; Rate 250 g ai/ha) of the same compound?
**A.** Its value is 50.

**Q.** And the “Post-emerge Herbicidal Activity, phytotoxicity rating SETVI” value ([14]; Rate 63 g ai/ha)?
**A.** Its value is 95.

**Q.** And the “Post-emerge Herbicidal Activity, phytotoxicity rating SETVI” value ([14]; Rate 250 g ai/ha)?
**A.** Its value is 100.

**Q.** What about the “Post-emerge Herbicidal Activity, phytotoxicity rating IPOHE” value ([15]; Rate 63 g ai/ha) of the same compound?
**A.** Its value is 20.

**Q.** What about the “Post-emerge Herbicidal Activity, phytotoxicity rating IPOHE” value ([15]; Rate 250 g ai/ha) of the same compound?
**A.** Its value is 50.

**Q.** And the “Post-emerge Herbicidal Activity, phytotoxicity rating SORHA” value ([16]; Rate 63 g ai/ha)?
**A.** The value was 30.

**Q.** What about the “Post-emerge Herbicidal Activity, phytotoxicity rating SORHA” value ([16]; Rate 250 g ai/ha) of the same compound?
**A.** The value was 40.

**Q.** What about the “Post-emerge Herbicidal Activity, phytotoxicity rating CHEAL” value ([17]; Rate 63 g ai/ha) of the same compound?
**A.** The value was 100.

**Q.** What about the “Post-emerge Herbicidal Activity, phytotoxicity rating CHEAL” value ([17]; Rate 250 g ai/ha) of the same compound?
**A.** The value was 100.

**Q.** What about the “Post-emerge Herbicidal Activity, phytotoxicity rating DIGSA” value ([18]; Rate 63 g ai/ha) of the same compound?
**A.** Its value is 60.

**Q.** And the “Post-emerge Herbicidal Activity, phytotoxicity rating DIGSA” value ([18]; Rate 250 g ai/ha)?
**A.** Its value is 100.

**Q.** What about the “Post-emerge Herbicidal Activity, phytotoxicity rating AMARE” value ([19]; Rate 63 g ai/ha) of the same compound?
**A.** Its value is 100.

**Q.** What about the “Post-emerge Herbicidal Activity, phytotoxicity rating AMARE” value ([19]; Rate 250 g ai/ha) of the same compound?
**A.** The value was 100.

**Q.** What about the “Post-emerge Herbicidal Activity, phytotoxicity rating CASOB” value ([20]; Rate 63 g ai/ha) of the same compound?
**A.** The value was 60.

**Q.** What about the “Post-emerge Herbicidal Activity, phytotoxicity rating CASOB” value ([20]; Rate 250 g ai/ha) of the same compound?
**A.** Its value is 100.

**Q.** What about the “Post-emerge Herbicidal Activity, phytotoxicity rating ABUTH” value ([21]; Rate 63 g ai/ha) of the same compound?
**A.** Its value is 99.

**Q.** And the “Post-emerge Herbicidal Activity, phytotoxicity rating ABUTH” value ([21]; Rate 250 g ai/ha)?
**A.** The value was 100.

**Q.** What about the “Post-emerge phytotoxicity rating CORN (crop damage)” value ([22]; Rate 63 g ai/ha) of the same compound?
**A.** The value was 30.

**Q.** And the “Post-emerge phytotoxicity rating CORN (crop damage)” value ([22]; Rate 250 g ai/ha)?
**A.** The value was 50.

**Q.** And the “Post-emerge phytotoxicity rating RICE (crop damage)” value ([23]; Rate 63 g ai/ha)?
**A.** Its value is 90.

**Q.** What about the “Post-emerge phytotoxicity rating RICE (crop damage)” value ([23]; Rate 250 g ai/ha) of the same compound?
**A.** The value was 100.
